Legend:
rat mesenteric arteries = assay: Contractility studies in perfused, pressurized mesenteric arteries; conditions: co-incubated with angiotensin-(1-9)
Procedure: The change in diameter of rat resistance (mesenteric) arteries was determined, they were then perfused and pressurized under physiological conditions, in response to different substances, according to a methodology previously described (Gonzalez et al. Hypertension 45:853-9, 2005). Briefly, male rats (Sprague Dawley, 150-200 g) were euthanized for dissection of mesenteric vascular territory, avoiding direct manipulation of arterial or venous tissue. Mesenteric small arteries (200-300 micrometers) were isolated, surgically eliminating adventitial tissue under a zoom stereo microscope (Olympus SZ61). The arteries were perfused intraluminally into a thermoregulated bath at controlled pressure and flow, with perfusion solution (modified Krebs, KRB) of the following composition, in mmol/L: NaCl, 130; CaCl2, 2.5; NaHCO3, 25; MgSO4, 1.2; NaH2PO4, 1.2; KCl, 4.7; glucose, 5.5, pH 7.4. Before use, KRB was gassed with a mixture of 95% O2 and 5% CO2. For perfusion, the artery was cannulated with a glass micropipette (outer diameter 164μ), secured with 5-0 silk suture. The arteries were perfused with 10-20 μL/min KRB, so as to achieve transmural pressure of 60 mmHg. After a rest period of 20 minutes, each artery was incubated in the presence of a vasoconstrictor (100 μM phenylephrine) for two minutes and an endothelial NO production agonist (1 μM acetylcholine). […]

angiotensin-(1-9) = conditions: administration of the drug; cited from earlier work
[1] = tested on: hypertensive rats by administration of angiotensin II; assay: Hypertension induced by angiotensin II infusion: body mass, cardiac mass, systolic blood pressure; assay type: in vivo, rat
Procedure: (§1) Rats were subjected to the model of angiotensin II infusion (Grobe et al.: Am. J. Physiol. 292: H736-42, 2007). The animals were separated randomly into the following experimental groups: controls (Sham or pseudo-operated), infused with angiotensin II (300 ng/kg min), infused with angiotensin II and angiotensin-(1-9) (300 ng/kg min and 602 ng/kg min, respectively), and then infused with angiotensin II, angiotensin-(1-9) and the angiotensin-(1-7) receptor antagonist, A779 (300 ng/kg min, 602 ng/kg min, and 100 ng/kg min, respectively). In all cases the pumps operated at a flow of 0.5 μL/h and were implanted in the right jugular vein through a catheter fitted in an intrascapular subcutaneous pocket under anesthesia with ketamine HCl/xylazine (35 and 7 mg/kg i.p., respectively), for a period of 14 days.
Systolic blood pressure (SBP) was measured by the tail plethysmographic method in the animals. To such end, rats were lightly anesthetized with ethyl ether. The measurement was performed once a week by researchers blind to the treatment (Ocaranza et al. J. Hypertens. 20:413-20, 2002).
The degree of cardiac hypertrophy (CH) was measured by the ratio of the cardiac mass (CM), the body mass (BM) and relative cardiac mass (RCM; [CM/BM]*100) (Ocaranza et al., J. Hypertens. 28:1054-1064, 2010).
Four experimental groups of rats were established as described in Example 1. Group 1 corresponds to rats which were infused with saline (Sham). Group 2 corresponds to rats which were infused with only angiotensin II. Group 3 correspond to rats which were co-infused with angiotensin II and angiotensin-(1-9). And Group 4 corresponds to rats which were co-infused with angiotensin II, angiotensin-(1-9) and A779.

[2] = tested on: thoracic aortas of hypertensive rats by angiotensin II infusion; assay: Angiotensin II infusion model: aortic hypertrophy by morphometry; assay type: in vivo, rat; conditions: thoracic aorta, 14 days infusion
Procedure: as §1
Aortic hypertrophy was determined by morphometry. Sections of the descending aorta of 5 μm thick, which were previously fixed in Bouin (1.3% picric acid, 9.5% formaldehyde and 4.8% acetic acid) for 24 hours, embedded in paraffin and stained with hematoxylin-eosin, were used, to be examined later in a light microscope as described by Igase et al. (Am. J. Physiol. 289:H1013-9, 2005). Briefly, images of the aortas were captured by a video camera (Nikon) fixed to a microscope (Nikon), and projected on a monitor; using the software Nis-Element. Lumen areas (LA) and total areas (TA) were calculated and recorded. The tunica media area (TMA) was obtained from the difference between the TA and LA of the aorta. The tunica media thickness (TMT) was defined as the region delimited by the external elastic lamina (EEL) and internal elastic lamina (IEL).

[3] = tested on: cardiomyocyte hypertrophy induced by Ang II in vivo; assay: Angiotensin II infusion model: cardiomyocyte hypertrophy (area and perimeter); set-up: species or system rat; conditions: two weeks
Procedure: as §1
The middle portion of the left ventricle (LV) was dehydrated at room temperature for 24 h in Bouin and then embedded in paraffin. Sections of 10-15 μm thick were taken and stained with hematoxylin-eosin, to be examined later in a light microscope in order to observe their general morphological characteristics. Cardiomyocyte size was determined according to Nakamura et al. (Circulation, 98:794-9, 1998). Briefly, images of the cells were captured using a Nikon DS Fi1 camera and projected on a monitor using a software program. The cardiomyocyte area and perimeter were measured and recorded, using the Nis-Element program (Ocaranza et al. J. Hypertens., 28:1054-64, 2010). All measurements were performed by a blinded observer, and at least 80 images of cells per animal, which were randomly selected, were analyzed.

TGF-β mRNA = assay: Angiotensin II infusion model: TGF-β mRNA levels in the aortic wall; assay type: in vivo, rat; conditions: normalized to 18S rRNA
Procedure: as §1
(§2) The procedure described by Ocaranza et al. (Hypertension 48:572-8, 2006) was followed. Briefly, total RNA was isolated from the aorta using the trizol method and quantified by spectroscopy at 260 nm/280 nm. The cDNA was obtained by reverse transcription from 1.5 μg of total RNA treated with DNAse. […] The band intensity was quantified by densitometry and normalized to the 18S ribosomal RNA band.

MCP-1 mRNA = assay: Angiotensin II infusion model: MCP-1 mRNA levels in the aortic wall; assay type: in vivo, rat
Procedure: as §1, §2

collagen I = assay: Angiotensin II infusion model: collagen I protein levels in the aortic wall by Western blot; assay type: in vivo, rat; conditions: aortic wall
Procedure: as §1
For the determination of collagen I and TGFβ-1, 30 μg and 50 μg of total proteins were used, respectively, diluted in SDS reducing buffer (50 mM tris-HCl, pH 7.4, NP-40 10%, NaCl 1M, Na deoxycholate 5%, EDTA 10 mg/mL, SDS 10%, aprotinin 1 mg/mL, leupeptin 0.1 mg/mL, PMSF 10 mM), they were then separated by SDS-PAGE gel electrophoresis 7%, and transferred to nitrocellulose membranes of […] to 300 mA for 1 h. The transfer of proteins was monitored by Ponceau red staining. […]

COC(=O)[C@@H](N)CCCNC(=N)N[N+](=O)[O-] [L-NAME, reference compound]
effect of nitric oxide synthase inhibitor on the vasodilator effect of angiotensin-(1-9) (rat mesenteric arteries): decreased the vasodilator effect

CCOC(=O)[C@H](CCc1ccccc1)N[C@@H](C)C(=O)N1CCC[C@H]1C(=O)O [enalapril]
plasma and/or tissue levels of angiotensin-(1-9) (angiotensin-(1-9)): increase

Asp-Arg-Val-Tyr-Ile-His-Pro-Phe [angiotensin II, infused to induce hypertension in the model, reference compound]
SBP 1st week ([1]; 1st week of infusion): 130 ± 4 mmHg | SBP 2nd week ([1]; 2nd week of infusion): 154 ± 10 mmHg | Initial SBP ([1]; baseline, tail plethysmography): 121 ± 9 mmHg | CM ([1]; rats, infusion for 14 days): 899 ± 28 mg | RCM (MV/MC) ([1]; rats, infusion for 14 days): 348 ± 18 | ratio of tunica media area (TMA) to LA [2]: increase | thickness of the tunica media (TMT) [2]: increased significantly | vascular lumen area (LA) [2]: no change | cardiomyocyte cell area ([3]; left ventricle): 282±2 μm^2 | cardiomyocyte perimeter ([3]; left ventricle): 66.2±0.3 μm | increase in cell area as compared to the Sham control group [3]: 37% | increase in perimeter as compared to the Sham control group [3]: 18% | increase of TGF-β mRNA in relation to Sham control (TGF-β mRNA): 12.8 times | MCP-1 mRNA levels (MCP-1 mRNA): no differences | increase of collagen I as compared to the Sham control group (collagen I): 4.5 times

From US9511120B2, “Use of the angiotensin-(1-9) peptide or derivatives thereof, use of vectors overexpressing the ACE2 enzyme that produces angiotensin-(1-9) for preparing medicaments useful for preventing, reverting, inhibiting and/or reducing hypertension and/or inducing vasodilation” (PONTIFICA UNIVERSIDAD CATÓLICA DE CHILE, priority 2012, dated 2016)
